Laboratory results taken from publication PMC9668969 (Nature Communications, 2022).
Where “and” joins values, the source holds several entries; their conditions need not be identical. Equal entries are not always repeated.

System: WT ELIC
Test: Fluorescence stopped-flow liposomal Tl+ flux assay, symmetric liposomes
Format: biochemical, Erwinia chrysanthemi
Details: for Avg (stopped-flow fluorescence quenching rate): average of experiments; for Rate (stopped-flow fluorescence quenching rate): single experiments
Method: The fluorescence sequential-mixing stopped-flow liposomal flux measurements were carried using an SX20 stopped-flow spectrofluorometer (Applied Photophysics) and Pro-Data SX software[13],[30]. 7.5 mg of the respective lipid mixture (POPC, 1:1 POPC: POPE, 1:1 POPC:POPG, 3:1 POPC:POPE, 3:1 POPC:POPG, 2:1:1 POPC:POPE:POPG) was dried in a glass vial to a thin film under a constant stream of N2. The lipids were then further dried under vacuum in a desiccator overnight. The following day the lipids were hydrated in 500 µl of reconstitution buffer (100 mM NaNO3, 10 mM HEPES, pH 7) (Buffer R), 250 µl of 75 mM 8-Aminonaphthalene-1,3,6-Trisulfonic Acid (ANTS, ThermoFisher Scientific) in buffer R, and doped with ~18 mg of CHAPS (Anatrace). The mixture was vortexed and then sonicated with heat until completely solubilized. Following the sonication, the solution was brought to RT then 3.5 µl of 6.7 mg/ml ELIC in Buffer A with 0.02% DDM was added (3 µg per mg of lipid). This combined solution was incubated at RT for 30 min, followed by the addition of 1 ml of 1:1 v/v SM-2 BioBeads in Buffer R and an additional 250 µl of 75 mM ANTS in Buffer R. This mixture was incubated at RT for 2.5 hr with gentle mixing. The liposome suspension was then extruded with an Avanti mini-extruder and 0.1 µm membrane (30×). The extruded liposomes were stored at 13 °C overnight with gentle rotation. The next day, the liposomes were diluted to 2.5 mL using assay buffer (140 mM NaNO3, 10 mM HEPES, pH 7) (Stopped-flow Buffer A), loaded into a PD-10 desalting column (Cytiva), eluted with 3 mL of Stopped-flow Buffer A and subsequently diluted 5-fold with Stopped-flow Buffer A.
Using propylamine as the agonist, the assay and analysis was carried out as previously described[13],[30]. ELIC-containing liposomes were first mixed 1:1 with Buffer A containing 2× the concentration of propylamine. After a variable delay of 10 ms to 25 s, the sample was then mixed 1:1 with a quenching buffer (90 mM NaNO3, 50 mM TlNO3, 10 mM HEPES, pH 7), and ANTS fluorescence (ex. 360 nm, fluorescence above 420 nm) was recorded for 1 s. For each delay time, 5 repeat measurements were obtained. The data were collected using Applied Photophysics Pro-Data SX software. The fluorescence quenching traces were fit to a stretched exponential (Eq. 2a) and the rate of Tl^+ influx was determined at 2 ms (Eq. 2b).2a Ft=F∞+F0−F∞⋅e^−t/τ^β 2b kt=β/τ⋅2ms/τ^(β−1) where Ft, F∞, F0 are the fluorescence at time t, final fluorescence and initial fluorescence. τ is the time constant, β the stretched exponential factor, and kt the calculated rate of Tl^+ influx at 2 ms. The time course of desensitization was also fit to a double exponential and a weighted time constant was calculated as was done for the patch-clamp data using Origin 2019b. All replicates were taken from independent samples.

[1] = WT in PC liposomes, 0.3 mM PA, delay time 0
[2] = WT in PC liposomes, 1 mM PA, delay time 0

SMILES: CCCN [propylamine]
- Avg (stopped-flow fluorescence quenching rate) (WT in 2:1:1 PC:PE:PG liposomes, 3 mM PA, delay time 5): 145.791
- Avg (stopped-flow fluorescence quenching rate) (WT in 2:1:1 PC:PE:PG liposomes, 3 mM PA, delay time 10): 107.502
- Avg (stopped-flow fluorescence quenching rate) (WT in 2:1:1 PC:PE:PG liposomes, 3 mM PA, delay time 25): 38.6642
- Rate (stopped-flow fluorescence quenching rate) (WT in 2:1:1 PC:PE:PG liposomes, 10 mM PA, delay time 0): 0
- Avg (stopped-flow fluorescence quenching rate) (WT in 2:1:1 PC:PE:PG liposomes, 10 mM PA, delay time 0.025): 169.086
- Avg (stopped-flow fluorescence quenching rate) (WT in 2:1:1 PC:PE:PG liposomes, 10 mM PA, delay time 0.05): 180.798
- Avg (stopped-flow fluorescence quenching rate) (WT in 2:1:1 PC:PE:PG liposomes, 10 mM PA, delay time 0.05 [sic] (between 0.25 and 1)): 198.043
- Rate (stopped-flow fluorescence quenching rate) (WT in 2:1:1 PC:PE:PG liposomes, 10 mM PA, delay time 0.05 [sic] (between 0.25 and 1), listed as PA): 249.635 and 148.719 and 195.774
- Avg (stopped-flow fluorescence quenching rate) (WT in 2:1:1 PC:PE:PG liposomes, 10 mM PA, delay time 0.1): 165.345
- Avg (stopped-flow fluorescence quenching rate) (WT in 2:1:1 PC:PE:PG liposomes, 10 mM PA, delay time 0.25): 213.572
- Rate (stopped-flow fluorescence quenching rate) (WT in 2:1:1 PC:PE:PG liposomes, 10 mM PA, delay time 0.25, listed as PA): 256.17 and 144.253 and 240.291
- Avg (stopped-flow fluorescence quenching rate) (WT in 2:1:1 PC:PE:PG liposomes, 10 mM PA, delay time 1): 169.644
- Rate (stopped-flow fluorescence quenching rate) (WT in 2:1:1 PC:PE:PG liposomes, 10 mM PA, delay time 1, listed as PA): 228.219 and 122.935 and 157.778
- Avg (stopped-flow fluorescence quenching rate) (WT in 2:1:1 PC:PE:PG liposomes, 10 mM PA, delay time 2.5): 155.074
- Avg (stopped-flow fluorescence quenching rate) (WT in 2:1:1 PC:PE:PG liposomes, 10 mM PA, delay time 5): 103.359
- Avg (stopped-flow fluorescence quenching rate) (WT in 2:1:1 PC:PE:PG liposomes, 10 mM PA, delay time 10): 60.9022
- Avg (stopped-flow fluorescence quenching rate) (WT in 2:1:1 PC:PE:PG liposomes, 10 mM PA, delay time 25): 14.6606
- Rate (stopped-flow fluorescence quenching rate) (WT in 2:1:1 PC:PE:PG liposomes, 10 mM PA, delay time 25, listed as PA): 13.7363 and 15.821 and 14.4245
- Rate (stopped-flow fluorescence quenching rate) (WT in 2:1:1 PC:PE:PG liposomes, 30 mM PA, delay time 0): 0
- Avg (stopped-flow fluorescence quenching rate) (WT in 2:1:1 PC:PE:PG liposomes, 30 mM PA, delay time 0.025): 74.8381
- Avg (stopped-flow fluorescence quenching rate) (WT in 2:1:1 PC:PE:PG liposomes, 30 mM PA, delay time 0.05): 63.4545
- Avg (stopped-flow fluorescence quenching rate) (WT in 2:1:1 PC:PE:PG liposomes, 30 mM PA, delay time 0.1): 63.448
- Avg (stopped-flow fluorescence quenching rate) (WT in 2:1:1 PC:PE:PG liposomes, 30 mM PA, delay time 0.25): 66.7765
- Avg (stopped-flow fluorescence quenching rate) (WT in 2:1:1 PC:PE:PG liposomes, 30 mM PA, delay time 0.5): 62.7383
- Avg (stopped-flow fluorescence quenching rate) (WT in 2:1:1 PC:PE:PG liposomes, 30 mM PA, delay time 1): 67.601
- Avg (stopped-flow fluorescence quenching rate) (WT in 2:1:1 PC:PE:PG liposomes, 30 mM PA, delay time 2.5): 40.183
- Avg (stopped-flow fluorescence quenching rate) (WT in 2:1:1 PC:PE:PG liposomes, 30 mM PA, delay time 5): 15.7901
- Avg (stopped-flow fluorescence quenching rate) (WT in 2:1:1 PC:PE:PG liposomes, 30 mM PA, delay time 10): 23.9739
- Avg (stopped-flow fluorescence quenching rate) (WT in 2:1:1 PC:PE:PG liposomes, 30 mM PA, delay time 25): 10.034
- Rate (stopped-flow fluorescence quenching rate) (WT in 2:1:1 PC:PE:PG liposomes, 30 mM PA, delay time 25, listed as PA): 8.132 and 11.9359
- Avg (stopped-flow fluorescence quenching rate) [1]: 0
- Rate (stopped-flow fluorescence quenching rate) [1]: 0
- Avg (stopped-flow fluorescence quenching rate) (WT in PC liposomes, 0.3 mM PA, delay time 0.01): 0.08537
- Rate (stopped-flow fluorescence quenching rate) (WT in PC liposomes, 0.3 mM PA, delay time 0.01, listed as PA): 0.07068 and 0.08871 and 9.67E-02
- Avg (stopped-flow fluorescence quenching rate) (WT in PC liposomes, 0.3 mM PA, delay time 0.025): 0.09939
- Avg (stopped-flow fluorescence quenching rate) (WT in PC liposomes, 0.3 mM PA, delay time 0.05): 0.06401
- Avg (stopped-flow fluorescence quenching rate) (WT in PC liposomes, 0.3 mM PA, delay time 0.1): 0.08141
- Avg (stopped-flow fluorescence quenching rate) (WT in PC liposomes, 0.3 mM PA, delay time 0.25): 0.0402
- Rate (stopped-flow fluorescence quenching rate) (WT in PC liposomes, 0.3 mM PA, delay time 0.25, listed as PA): 0.04925 and 0.03838 and 0.03298
- Avg (stopped-flow fluorescence quenching rate) (WT in PC liposomes, 0.3 mM PA, delay time 0.5): 0.1212
- Rate (stopped-flow fluorescence quenching rate) (WT in PC liposomes, 0.3 mM PA, delay time 0.5, listed as PA): 0.0905 and 0.1754 and 0.09759
- Avg (stopped-flow fluorescence quenching rate) (WT in PC liposomes, 0.3 mM PA, delay time 1): 0.07413
- Avg (stopped-flow fluorescence quenching rate) (WT in PC liposomes, 0.3 mM PA, delay time 2.5): 0.08146
- Rate (stopped-flow fluorescence quenching rate) (WT in PC liposomes, 0.3 mM PA, delay time 2.5, listed as PA): 0.09799 and 0.04957 and 0.09682
- Avg (stopped-flow fluorescence quenching rate) (WT in PC liposomes, 0.3 mM PA, delay time 5): 0.09461
- Avg (stopped-flow fluorescence quenching rate) [2]: 0
- Rate (stopped-flow fluorescence quenching rate) [2]: 0
- Avg (stopped-flow fluorescence quenching rate) (WT in PC liposomes, 1 mM PA, delay time 0.01): 0.0808
- Rate (stopped-flow fluorescence quenching rate) (WT in PC liposomes, 1 mM PA, delay time 0.01, listed as PA): 0.07542 and 0.09146 and 0.07551
- Avg (stopped-flow fluorescence quenching rate) (WT in PC liposomes, 1 mM PA, delay time 0.025): 0.1635
- Avg (stopped-flow fluorescence quenching rate) (WT in PC liposomes, 1 mM PA, delay time 0.05): 0.08808
- Rate (stopped-flow fluorescence quenching rate) (WT in PC liposomes, 1 mM PA, delay time 0.05, listed as PA): 0.09304 and 0.1089 and 0.06236
